# From patent US12084473B2, “β-D-2′-deoxy-2′-α-fluoro-2′-β-C-substituted-2-modified-N6-substituted purine nucleotides for HCV treatment” (Atea Pharmaceuticals, Inc., priority 2015, dated 2024)
# Where two headings read alike, the source gives them in different places.
# Experiments:
# [1] = tested on: HCV genotype 1b luciferase reporter replicon; test: microbe, parasite or virus in culture; assay type: cell-based
# [2] = tested on: HCV genotype 1b luciferase reporter replicon; test: microbe, parasite or virus in culture; assay type: cell-based; details: Hepatitis C virus, HuH-7-Luc/Neo-ET, 72 h, read-out: HCV Replicon EC50/EC95: EC50
# Huh-7 luc/neo ET cells = test: Cytotoxicity by XTT staining in replicon cells
# Outline: (§1)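 Cells cultured 24 h, then exposed 72 h to six half-log dilutions (top 100.0 or 1.0 μM) in triplicate, with interferon-alpha2b reference and medium-only controls. Viability read by XTT staining on a parallel plate; TC50 derived from concentration-response.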
# [3] = Cytotoxicity by XTT staining in replicon cells; details: human
# Outline: as §1
# HCV wild type replicon = test: microbe, parasite or virus in culture; assay type: cell-based; details: NS5B Mutation None
# Description: (§2) A transient transfection assay was performed to determine the sensitivity of the […] of HCV to test compounds. Huh-7 cells were electroporated in the presence of RNA transcribed from wild type or S282T HCV replicon plasmids from the T7 promoter. The transfected cells were seeded in to 96-well plates at 7.5×10^3 cells per well in Dulbecco's Modified Eagle's medium. After 24 hr of incubation, medium was removed and replaced with fresh medium containing no or various concentrations of test compounds. Following an additional 96-hr incubation, the anti-HCV activity was measured by luciferase endpoint with Britelite™ Plus luminescence reporter gene kit (Perkin Elmer, Shelton, CT). Duplicate plates were treated and incubated in parallel for assessment of cellular toxicity by staining with the tetrazolium dye XTT.
# HCV S282T replicon = test: microbe, parasite or virus in culture; assay type: cell-based
# Description: as §2
# [4] = tested on: HCV Genotype 3a-2, NS5B Mutation none; test: microbe, parasite or virus in culture; assay type: cell-based
# Description: (§3) Various patient-derived HCV genotypes containing wild-type and resistance-associated variants were used to determine their relative replication sensitivity to test compounds. Replicon resistance test vectors (RTVs) containing the NS5B genomic regions were prepared using viral RNA isolated from plasma of HCV patients. Each NS5B region was amplified by reverse-transcription polymerase chain reaction and cloned into an HCV replicon RTV which was then transferred by electroporation into Huh-7 cells.
# [5] = tested on: HCV Genotype 1b, NS5B Mutation C316N; test: microbe, parasite or virus in culture; assay type: cell-based
# Description: as §3
# [6] = tested on: HCV Genotype 1b, NS5B Mutation none; test: microbe, parasite or virus in culture; assay type: cell-based
# Description: as §3
# [7] = tested on: HCV Genotype 2b, NS5B Mutation none; test: microbe, parasite or virus in culture; assay type: cell-based
# Description: as §3
# [8] = tested on: HCV Genotype 4d, NS5B Mutation none; test: microbe, parasite or virus in culture; assay type: cell-based
# Description: as §3
# [9] = tested on: HCV Genotype 1a, NS5B Mutation L159F and S282T; test: microbe, parasite or virus in culture; assay type: cell-based
# Description: as §3
# [10] = tested on: HCV Genotype 2a, NS5B Mutation none; test: microbe, parasite or virus in culture; assay type: cell-based
# Description: as §3
# [11] = tested on: HCV Genotype 4a, NS5B Mutation none; test: microbe, parasite or virus in culture; assay type: cell-based
# Description: as §3
# [12] = tested on: HCV Genotype 1a, NS5B Mutation L159F; test: microbe, parasite or virus in culture; assay type: cell-based
# Description: as §3
# [13] = tested on: HCV Genotype 1a, NS5B Mutation none; test: microbe, parasite or virus in culture; assay type: cell-based
# Description: as §3
# [14] = tested on: HCV Genotype 3a-1, NS5B Mutation none; test: microbe, parasite or virus in culture; assay type: cell-based
# Description: as §3
# [15] = Hepatitis C virus, 96 h, read-out: IC50 Value
# [16] = Hepatitis C virus, read-out: IC50 Value
# [17] = genotype 3a-2, no NS5B mutation
# [18] = genotype 1a, NS5B L159F and S282T
# [19] = genotype 3a-1, no NS5B mutation
smiles,measurement,setting,value
CNc1nc(N)nc2c1ncn2[C@@H]1OC(CO[P@@](=O)(N[C@@H](C)C(=O)OC(C)C)Oc2ccccc2)[C@@H](O)[C@@]1(C)F (stereo partly drawn) [Compound 5-2],fold increase in activity (versus parent nucleoside),[1],"≥ 3,900"
same,EC95,"[1]; Hepatitis C virus, Huh-7 luc/neo ET cells, 72 hours, luciferase, read-out: HCV Replicon EC50/EC95: EC95",28 nM
same,EC50,"[1]; Hepatitis C virus, read-out: EC50 in a replicon assay",4 nM
same,Fold increase in activity compared to parent nucleoside,[1]; Table 7,">3,900"
same,EC50,[2],4 nM
same,TC50,Huh-7 luc/neo ET cells,greater than one hundred
same,CC50 at 72 h,[3],> 100000 nM
same,IC50,"HCV wild type replicon; Hepatitis C virus, transient assay, 96-hr, read-out: IC50 Value",1.4 nM
same,Fold Change in IC50 from Sofosbuvir,HCV wild type replicon,26
same,Fold Change in IC95 from Sofosbuvir,HCV wild type replicon,22.2
same,IC95 Value,"HCV wild type replicon; transient assay, 96-hr",9.98 nM
same,cross-resistance to S282T variant,HCV S282T replicon,"neither 25, 27, nor 5-2 compounds showed any evidence of cross-resistance"
same,IC50,HCV S282T replicon; [15],2.8 nM
same,Fold Change in IC50 from Sofosbuvir,HCV S282T replicon; NS5B Mutation S282T,99.3
same,Fold Change in IC95 from Sofosbuvir,HCV S282T replicon; NS5B Mutation S282T,<48.5
same,IC95 Value,"HCV S282T replicon; NS5B Mutation S282T, transient assay, 96-hr",20.6 nM
same,IC50,[4]; [16],10.4 nM
same,Fold Change in IC50 from Sofosbuvir,[4]; [17],11.9
same,Fold Change in IC95 from Sofosbuvir,[4]; [17],14.3
same,IC95 Value,[4]; [17],56.5 nM
same,cross-resistance to C316N mutant,[5],"neither 25, 27 nor 5-2 compound showed any evidence of cross-resistance"
same,IC50,[5]; [16],7.7 nM
same,Fold Change in IC50 from Sofosbuvir,"[5]; genotype 1b, NS5B C316N",9.6
same,Fold Change in IC95 from Sofosbuvir,"[5]; genotype 1b, NS5B C316N",11.1
same,IC95 Value,"[5]; genotype 1b, NS5B C316N",42.7 nM
same,IC50,[6]; [16],10.6 nM
same,Fold Change in IC50 from Sofosbuvir,"[6]; genotype 1b, no NS5B mutation",0.8
same,Fold Change in IC95 from Sofosbuvir,"[6]; genotype 1b, no NS5B mutation",8.9
same,IC95 Value,"[6]; genotype 1b, no NS5B mutation",72.4 nM
same,IC50,[7]; [16],6.3 nM
same,Fold Change in IC50 from Sofosbuvir,"[7]; genotype 2b, no NS5B mutation",7.1
same,Fold Change in IC95 from Sofosbuvir,"[7]; genotype 2b, no NS5B mutation",9.1
same,IC95 Value,"[7]; genotype 2b, no NS5B mutation",32.5 nM
same,IC50,[8]; [15],14 nM
same,Fold Change in IC50 from Sofosbuvir,"[8]; genotype 4d, no NS5B mutation",6.7
same,Fold Change in IC95 from Sofosbuvir,"[8]; genotype 4d, no NS5B mutation",12.8
same,IC95 Value,"[8]; genotype 4d, no NS5B mutation",79.9 nM
same,cross-resistance to L159F and S282T mutant,[9],"neither 25, 27 nor 5-2 compound showed any evidence of cross-resistance"
same,IC50,[9]; [16],38.7 nM
same,Fold Change in IC50 from Sofosbuvir,[9]; [18],41.9
same,Fold Change in IC95 from Sofosbuvir,[9]; [18],54.1
same,IC95 Value,[9]; [18],313.5 nM
same,IC50,[10]; [16],6.2 nM
same,Fold Change in IC50 from Sofosbuvir,"[10]; genotype 2a, no NS5B mutation",3.6
same,Fold Change in IC95 from Sofosbuvir,"[10]; genotype 2a, no NS5B mutation",4.3
same,IC95 Value,"[10]; genotype 2a, no NS5B mutation",45.4 nM
same,IC50,[11]; [16],9.9 nM
same,Fold Change in IC50 from Sofosbuvir,"[11]; genotype 4a, no NS5B mutation",7.5
same,Fold Change in IC95 from Sofosbuvir,"[11]; genotype 4a, no NS5B mutation",9.2
same,IC95 Value,"[11]; genotype 4a, no NS5B mutation",74.4 nM
same,cross-resistance to L159F mutant,[12],"neither 25, 27 nor 5-2 compound showed any evidence of cross-resistance"
same,IC50,[12]; [16],13 nM
same,Fold Change in IC50 from Sofosbuvir,"[12]; genotype 1a, NS5B L159F",8.8
same,Fold Change in IC95 from Sofosbuvir,"[12]; genotype 1a, NS5B L159F",11.2
same,IC95 Value,"[12]; genotype 1a, NS5B L159F",95.3 nM
same,IC50,[13]; [16],10.5 nM
same,Fold Change in IC50 from Sofosbuvir,"[13]; genotype 1a, no NS5B mutation",6.0
same,Fold Change in IC95 from Sofosbuvir,"[13]; genotype 1a, no NS5B mutation",8.4
same,IC95 Value,"[13]; genotype 1a, no NS5B mutation",60.8 nM
same,IC50,[14]; [16],11.8 nM
same,Fold Change in IC50 from Sofosbuvir,[14]; [19],10.7
same,Fold Change in IC95 from Sofosbuvir,[14]; [19],11.6
same,IC95 Value,[14]; [19],59.3 nM
